The numbers were not newly measured in patent US10674726B2, “Composition” (Conopco, Inc., priority 2013, dated 2020), which cites them from elsewhere.

The conditions of this data set: at neutral pH.

Regarding `CCCCCCCC(CC(=O)O)OC(=O)CC(CCCCCCC)O[C@@H]1O[C@@H](C)[C@H](O)[C@@H](O)[C@H]1O` (stereo partly drawn) [mono-rhamnolipid, 3-[3-[(2R,3R,4R,5R,6S)-3,4,5-trihydroxy-6-methyloxan-2-yl]oxydecanoyloxy]decanoic acid], the “Critical Micelle Concentration” value is reported as 20 mg/L. Consider `CCCCCCCC(CC(=O)O)OC(=O)CC(CCCCCCC)OC1OC(C)C(O)C(O)C1OC1OC(C)C(O)C(O)C1O` (centres unmarked) [dirhamnolipid, 3-[3-[4,5-dihydroxy-6-methyl-3-(3,4,5-trihydroxy-6-methyloxan-2-yl)oxyoxan-2-yl]oxydecanoyloxy]decanoic acid], for which the “Critical Micelle Concentration” value was 30 mg/L.
